Among the data in ChEMBL document CHEMBL2029203, “Discovery of potent antimicrobial peptide analogs of Ixosin-B” (Bioorg Med Chem Lett, 2012) are MIC and hemolysis values, retold here.

≈ marks a conversion by molar mass, not a printed value. Residues, ends and D or L forms follow the SMILES beside them. Some results are limits rather than exact numbers.

For data set [1], the system named is Escherichia coli. The data set is described as follows: Antimicrobial activity against Escherichia coli ATCC 25922 after 18 to 20 hrs by spectrophotometry. In kind it is functional.
For the next data set, the system named is Pseudomonas aeruginosa. The data set is described as follows: Antimicrobial activity against Pseudomonas aeruginosa ATCC 27853 after 18 to 20 hrs by spectrophotometry. The format is functional.
Data set [2] deals with Staphylococcus aureus. Briefly: Antimicrobial activity against Staphylococcus aureus ATCC 25923 after 18 to 20 hrs by spectrophotometry. In kind it is functional.
Data set [3] in a line: Toxicity against human erythrocytes assessed as hemolysis at 100 uM after 1 hr by spectrophotometry. The format is cell-based, Erythrocyte. Conditions: read-out: Activity.
Data set [4] concerns Escherichia coli. The data set is described as follows: Antimicrobial activity against Escherichia coli. The format is functional.
In data set [5] the test system is Staphylococcus aureus. Briefly: Antimicrobial activity against Staphylococcus aureus. In kind it is functional.
The next data set has as its system Candida albicans. Briefly: Antimicrobial activity against Candida albicans. In kind it is functional.

For orientation: MIC means the least concentration at which growth counts as inhibited. For `CC[C@H](C)[C@H](NC(=O)CNC(=O)[C@H](CO)NC(=O)[C@H](CCCNC(=N)N)NC(=O)[C@@H](NC(=O)CNC(=O)[C@H](Cc1c[nH]c2ccccc12)NC(=O)[C@H](CC(C)C)NC(=O)[C@H](CC(=O)O)NC(=O)[C@@H](NC(=O)[C@H](CCCCN)NC(=O)[C@H](CC(C)C)NC(=O)[C@@H](N)CCC(N)=O)C(C)C)[C@@H](C)O)C(N)=O` (H-QLKVDLWGTRSGI-NH2), the MIC against Escherichia coli [1], in the data set on Pseudomonas aeruginosa and in the data set with Staphylococcus aureus [2] was over 100 µM each time.

Turning to `CC1(C)S[C@@H]2[C@H](NC(=O)Cc3ccccc3)C(=O)N2[C@H]1C(=O)O` [PENICILLIN G], the figures for the MIC in the data set with Escherichia coli [1], in the data set with Pseudomonas aeruginosa and against Staphylococcus aureus [2] were over 100 µM, over 100 µM and 0.5 µM (≈ 0.167 µg/mL), respectively.

`CC[C@H](C)[C@H](NC(=O)CNC(=O)[C@H](CO)NC(=O)[C@H](CCCNC(=N)N)NC(=O)[C@@H](NC(=O)CNC(=O)[C@H](Cc1c[nH]c2ccccc12)NC(=O)[C@@H](N)CC(C)C)[C@@H](C)O)C(=O)N[C@@H](CCC(N)=O)C(=O)N1CCC[C@H]1C(=O)N[C@@H](CCC(=O)O)C(=O)N[C@@H](CCC(N)=O)C(=O)N[C@@H](Cc1cnc[nH]1)C(N)=O` (H-LWGTRSGIQPEQH-NH2): the MIC in the data set with Escherichia coli [1], against Pseudomonas aeruginosa and in the data set on Staphylococcus aureus [2] was over 100 µM in each case.

For the compound `CC(C)C[C@H](NC(=O)[C@H](CCCNC(=N)N)NC(=O)[C@@H](N)CCCCN)C(=O)N[C@@H](CCCNC(=N)N)C(=O)N[C@@H](CCCNC(=N)N)C(=O)N[C@H](C(=O)N[C@@H](Cc1c[nH]c2ccccc12)C(=O)N[C@@H](CCCNC(=N)N)C(=O)N[C@@H](CCCNC(=N)N)C(=O)N[C@@H](Cc1c[nH]c2ccccc12)C(=O)N[C@@H](CCCNC(=N)N)C(N)=O)C(C)C` (H-KRLRRVWRRWR-NH2), in data set [3], the hemolysis at 1 h, 100 µM is 3%. Further, the MIC in the data set on Escherichia coli [1] stood at 30 µM (≈ 50 µg/mL); in the data set on Pseudomonas aeruginosa it was 20 µM (≈ 33.3 µg/mL); in the data set with Staphylococcus aureus [2] it was 5 µM (≈ 8.34 µg/mL).

For `CC(C)[C@H](NC(=O)[C@H](CC(=O)O)NC(=O)[C@H](CO)NC(=O)[C@H](CCCCN)NC(=O)CNC(=O)[C@H](CO)NC(=O)[C@H](CO)NC(=O)[C@H](Cc1cnc[nH]1)NC(=O)[C@@H](N)CCC(N)=O)C(=O)N[C@@H](CCCNC(=N)N)C(=O)N[C@@H](CCCNC(=N)N)C(=O)N[C@@H](Cc1c[nH]c2ccccc12)C(N)=O` (H-QHSSGKSDVRRW-NH2), the MIC against Escherichia coli [1], in the data set on Pseudomonas aeruginosa and with Staphylococcus aureus [2] was over 100 µM each time.

With `CC(C)C[C@H](NC(=O)[C@H](CO)NC(=O)[C@@H](N)CCCCN)C(=O)N[C@@H](CCCNC(=N)N)C(=O)N[C@@H](CCCNC(=N)N)C(=O)N[C@H](C(=O)N[C@@H](Cc1c[nH]c2ccccc12)C(=O)N[C@@H](CCCNC(=N)N)C(=O)N[C@@H](CO)C(=O)N[C@@H](Cc1c[nH]c2ccccc12)C(=O)N[C@@H](CCCNC(=N)N)C(N)=O)C(C)C` (H-KSLRRVWRSWR-NH2), the hemolysis at 1 h, 100 µM in data set [3] was 0%. The MIC with Escherichia coli [1] was found to be 30 µM (≈ 45.9 µg/mL); with Pseudomonas aeruginosa it was 40 µM (≈ 61.2 µg/mL); with Staphylococcus aureus [2], 60 µM (≈ 91.7 µg/mL).

Turning to `CC(C)[C@H](NC(=O)[C@H](CC(=O)O)NC(=O)[C@H](CO)NC(=O)[C@@H](N)CCCCN)C(=O)N[C@@H](CCCNC(=N)N)C(=O)N[C@@H](CCCNC(=N)N)C(=O)N[C@@H](Cc1c[nH]c2ccccc12)C(=O)N[C@@H](CCCNC(=N)N)C(=O)N[C@@H](CO)C(=O)N[C@@H](CCCNC(=N)N)C(=O)N[C@@H](Cc1ccc(O)cc1)C(N)=O` (H-KSDVRRWRSRY-NH2), the MIC in the data set with Escherichia coli [1], in the data set on Pseudomonas aeruginosa and in the data set on Staphylococcus aureus [2] was over 100 µM throughout.

`CC(C)C[C@H](NC(=O)[C@H](CO)NC(=O)[C@@H](N)CCCCN)C(=O)N[C@H](C(=O)N[C@@H](CCCNC(=N)N)C(=O)N[C@@H](CCCNC(=N)N)C(=O)N[C@@H](Cc1c[nH]c2ccccc12)C(=O)N[C@@H](CCCNC(=N)N)C(=O)N[C@@H](CO)C(=O)N[C@@H](CCCNC(=N)N)C(=O)N[C@@H](Cc1c[nH]c2ccccc12)C(N)=O)C(C)C` (H-KSLVRRWRSRW-NH2): the hemolysis at 1 h, 100 µM in data set [3] is 0%. The MIC is 30 µM (≈ 45.9 µg/mL) in the data set on Escherichia coli [1], 40 µM (≈ 61.2 µg/mL) with Pseudomonas aeruginosa and 30 µM (≈ 45.9 µg/mL) against Staphylococcus aureus [2].

Turning to `CC(C)C[C@H](NC(=O)[C@H](Cc1c[nH]c2ccccc12)NC(=O)[C@@H](N)CCCCN)C(=O)N[C@@H](CCCNC(=N)N)C(=O)N[C@@H](CCCNC(=N)N)C(=O)N[C@H](C(=O)N[C@@H](Cc1c[nH]c2ccccc12)C(=O)N[C@@H](CCCNC(=N)N)C(=O)N[C@@H](Cc1c[nH]c2ccccc12)C(=O)N[C@@H](Cc1c[nH]c2ccccc12)C(=O)N[C@@H](CCCNC(=N)N)C(N)=O)C(C)C` (H-KWLRRVWRWWR-NH2), the hemolysis at 1 h, 100 µM in data set [3] is 100%. For the same compound, the figures for the MIC in the data set on Escherichia coli [1], with Pseudomonas aeruginosa and with Staphylococcus aureus [2] were 15 µM (≈ 25.9 µg/mL), 20 µM (≈ 34.5 µg/mL) and 2.5 µM (≈ 4.32 µg/mL), respectively.

On to `CC[C@H](C)[C@H](NC(=O)CNC(=O)[C@H](CO)NC(=O)[C@H](CCCNC(=N)N)NC(=O)[C@@H](NC(=O)CNC(=O)[C@H](Cc1c[nH]c2ccccc12)NC(=O)[C@H](CC(C)C)NC(=O)[C@H](CC(=O)O)NC(=O)[C@@H](NC(=O)[C@H](CCCCN)NC(=O)[C@H](CC(C)C)NC(=O)[C@@H](N)CCC(N)=O)C(C)C)[C@@H](C)O)C(=O)N[C@@H](CCC(N)=O)C(=O)N1CCC[C@H]1C(=O)N[C@@H](CCC(=O)O)C(=O)N[C@@H](CCC(N)=O)C(=O)N[C@@H](Cc1cnc[nH]1)C(=O)N[C@@H](CO)C(=O)N[C@@H](CO)C(=O)NCC(=O)N[C@@H](CCCCN)C(=O)N[C@@H](CO)C(=O)N[C@@H](CC(=O)O)C(=O)N[C@H](C(=O)N[C@@H](CCCNC(=N)N)C(=O)N[C@@H](CCCNC(=N)N)C(=O)N[C@@H](Cc1c[nH]c2ccccc12)C(=O)N[C@@H](CCCNC(=N)N)C(=O)N[C@@H](CO)C(=O)N[C@@H](CCCNC(=N)N)C(=O)N[C@@H](Cc1ccc(O)cc1)C(N)=O)C(C)C` [Ixosin-B-amide] (H-QLKVDLWGTRSGIQPEQHSSGKSDVRRWRSRY-NH2), for which the minimum inhibitory concentration (MIC) against Escherichia coli [4] was 15 µg/mL (≈ 3.93 µM); with Staphylococcus aureus [5] it was 2.5 µg/mL (≈ 0.656 µM); against Candida albicans it was 7.5 µg/mL (≈ 1.97 µM); against Escherichia coli [1], 80 µM (≈ 305 µg/mL); in the data set on Pseudomonas aeruginosa, over 80 µM; in the data set on Staphylococcus aureus [2], 80 µM (≈ 305 µg/mL). Moreover, the hemolysis at 1 h, 100 µM in data set [3] amounted to 0%.
